This note sets out measurements from patent publication US20230192657A1, “1,2,4-TRIAZOLINONE CB1 INHIBITORS” (Goldfinch Bio, Inc., priority 2020, published 2023).

In general, pIC50 refers to the negative decadic logarithm of the IC50, by convention in mol/L. The low end stands for a large IC50, the high end for a small IC50.

pIC50: −log10 of the molar value. Where only a bound is given, the exact number is not on record here.

CB1 receptor, sequence (P21554 whole entry): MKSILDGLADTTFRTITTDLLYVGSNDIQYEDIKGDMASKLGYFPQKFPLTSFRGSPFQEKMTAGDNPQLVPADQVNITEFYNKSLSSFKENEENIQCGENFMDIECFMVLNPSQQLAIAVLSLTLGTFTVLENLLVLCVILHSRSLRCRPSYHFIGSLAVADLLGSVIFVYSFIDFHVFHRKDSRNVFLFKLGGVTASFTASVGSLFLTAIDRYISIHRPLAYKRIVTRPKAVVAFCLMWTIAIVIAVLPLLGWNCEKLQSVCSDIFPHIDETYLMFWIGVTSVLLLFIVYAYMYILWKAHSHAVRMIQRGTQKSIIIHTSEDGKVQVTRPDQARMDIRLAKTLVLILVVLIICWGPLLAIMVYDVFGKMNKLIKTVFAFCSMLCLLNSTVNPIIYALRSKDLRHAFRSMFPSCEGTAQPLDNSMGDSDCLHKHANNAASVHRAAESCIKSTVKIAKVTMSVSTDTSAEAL

The assay addresses CB1 receptor (Homo sapiens, UniProt P21554). Kind of assay: CB1 cAMP Antagonist Assay (LANCE Ultra cAMP kit). It counts as cell-based. Conditions: Flp-In CHO cells stably expressing the CB1 receptor; forskolin and CP55940 agonist at EC90; cAMP FRET readout. The source says: CB1 cAMP Antagonist Assay
LANCE Ultra cAMP kit (Perkin Elmer) was used to quantitate the amount of 3′,5′-cyclic adenosine monophosphate (cAMP) produced in Flp-In CHO (Invitrogen) cells stably expressing the CB1 receptor.
Forskolin was initially titrated to determine the response of the cells. The EC90 of forskolin was used for compound testing. CP55940 was titrated and used with EC90 of forskolin to determine the level of agonist stimulation. EC90 of the agonist was used for subsequent compound testing.
Forskolin (Sigma), CP55940 (Cayman Chemicals), and AM251 (MCE) were diluted in 100% DMSO, starting at 100 mM, 1 mM, and 1 mM respectively, in 3-fold serial dilutions. Test compounds were diluted in 100% DMSO starting from 10 mM, 3-fold dilutions. The cAMP assay buffer contains 1x Hank’s Buffered Saline Solution with Ca^2+ and Mg^2+ (Invitrogen), 5.3 mM HEPES (Invitrogen), 0.05% BSA, 0.5 mM IBMX (Sigma).
For all assays, cells were harvested, counted, and diluted in cAMP assay buffer to 1× 10^5 cells/mL. Only cells with viability >85% were used for the assay. Cells were seeded at 1000 cells/well in 384-well plates and 10 nL/well AM251 or test compound was added and incubated at 37° C. for 10 min. […] To detect the amount of cAMP produced, 5 µL of a 100x diluted stock of Eu-cAMP tracer and 5 µL of 200x diluted stock of Ulight-anti-cAMP were added to each well, and the plate incubated at 25° C. for 15 min. The FRET signal was read using an EnVision microplate reader (λex=320 nm, λem=615 nm and 665 nm).
The IC50 is determined by fitting the percentage of inhibition as a function of compound concentrations with the Hill equation, using a 4-parameter fit in either XLfit or GraphPad Prism.
`NC(=O)Cn1c(N2C[C@]3(CCc4ccccc43)C(c3ccc(Cl)cc3)=N2)nn(Cc2ccc(Cl)cc2)c1=O` [Compound 122, 2-[3-[(1R)-3-(4-chlorophenyl)-1,2,3,5-tetrahydrospiro[indene-1,4-pyrazol]-1-yl]-1-[(4-chlorophenyl)methyl]-5-oxo-4,5-dihydro-1H-1,2,4-triazol-4-yl]acetamide]: the negative-log IC50 (pIC50) was 6.00 to 7.00.

`NC(=O)Cn1c(N2C[C@]3(CCc4ccccc43)C(c3ccc(Cl)cc3)=N2)nn(-c2ccc(Cl)cc2)c1=O` [Compound 124, 2-[1-(4-chlorophenyl)-3-[(1R)-3-(4-chlorophenyl)-1,2,3,5-tetrahydrospiro[indene-1,4-pyrazol]-1-yl]-5-oxo-4,5-dihydro-1H-1,2,4-triazol-4-yl]acetamide] showed a negative-log IC50 (pIC50) of 6.00 to 7.00.

The molecule `NC(=O)Cn1c(N2C[C@@]3(CCc4ccccc43)C(c3ccc(Cl)cc3)=N2)nn(Cc2ccc(Cl)cc2)c1=O` [Compound 125, 2-[3-[(1S)-3-(4-chlorophenyl)-1,2,3,5-tetrahydrospiro[indene-1,4-pyrazol]-1-yl]-1-[(4-chlorophenyl)methyl]-5-oxo-4,5-dihydro-1H-1,2,4-triazol-4-yl]acetamide] gave a negative-log IC50 (pIC50) of 5.30 to 6.00.

For the molecule `NC(=O)CCn1c(N2C[C@]3(CCc4ccccc43)C(c3ccc(Cl)cc3)=N2)nn(-c2ccc(Cl)cc2)c1=O` [Compound 126, 3-[1-(4-chlorophenyl)-3-[(1R)-3-(4-chlorophenyl)-1,2,3,5-tetrahydrospiro[indene-1,4-pyrazol]-1-yl]-5-oxo-4,5-dihydro-1H-1,2,4-triazol-4-yl]propanamide], the pIC50 is 6.00 to 7.00.

The molecule `O=C(O)CCn1c(N2C[C@]3(CCc4ccccc43)C(c3ccc(Cl)cc3)=N2)nn(Cc2ccc(Cl)cc2)c1=O` [Compound 127] gave a negative-log IC50 (pIC50) of less than 5.30.

`NC(=O)CCn1c(N2C[C@@]3(CCc4ccccc43)C(c3ccc(Cl)cc3)=N2)nn(-c2ccc(Cl)cc2)c1=O` [Compound 128] had a pIC50 of less than 5.30.

For the molecule `O=C(O)CCn1c(N2C[C@]3(CCc4ccccc43)C(c3ccc(Cl)cc3)=N2)nn(-c2ccc(Cl)cc2)c1=O` [Compound 129], the pIC50 is less than 5.30.

For `O=C(O)CCn1c(N2C[C@@]3(CCc4ccccc43)C(c3ccc(Cl)cc3)=N2)nn(-c2ccc(Cl)cc2)c1=O` [Compound 130], the pIC50 is less than 5.30.

For `O=C(O)CCn1c(N2C[C@@]3(CCc4ccccc43)C(c3ccc(Cl)cc3)=N2)nn(Cc2ccc(Cl)cc2)c1=O` [Compound 131], the pIC50 is less than 5.30.

Turning to `Cn1c(N2C[C@@H](c3ccccc3)C(c3ccc(Cl)cc3)=N2)nn(Cc2ccc(CN3CCOCC3)cc2)c1=O` [Compound 134], the pIC50 was 5.30 to 6.00.

In turn, `CN1CCN(Cc2ccc(Cn3nc(N4C[C@@H](c5ccccc5)C(c5ccc(Cl)cc5)=N4)n(C)c3=O)cc2)CC1` [Compound 135] showed a pIC50 of less than 5.30.

`Cn1c(N2C[C@H](c3ccccc3)C(c3ccc(Cl)cc3)=N2)nn(Cc2ccc(CN3CCOCC3)cc2)c1=O` [Compound 136, 3-[(4S)-3-(4-chlorophenyl)-4-phenyl-4,5-dihydro-1H-pyrazol-1-yl]-4-methyl-1-([4-[(morpholin-4-yl)methyl]phenyl]methyl)-4,5-dihydro-1H-1,2,4-triazol-5-one] had a pIC50 of 6.00 to 7.00.

In the case of `CN1CCN(Cc2ccc(Cn3nc(N4C[C@H](c5ccccc5)C(c5ccc(Cl)cc5)=N4)n(C)c3=O)cc2)CC1` [Compound 137], the pIC50 was 5.30 to 6.00.

As to `Cn1nc(N2C[C@]3(CCc4ccccc43)C(c3ccc(Cl)cc3)=N2)n(C)c1=O` [Compound 138], the pIC50 was less than 5.30.

With `Cn1nc(N2C[C@@]3(CCc4ccccc43)C(c3ccc(Cl)cc3)=N2)n(C)c1=O` [Compound 141], the pIC50 was 5.30 to 6.00.

The molecule `COc1ccc(Cn2nc(N3C[C@@H](c4ccccc4)C(c4ccc(Cl)cc4)=N3)n(C)c2=O)cc1` [Compound 142] showed a pIC50 of 5.30 to 6.00.

Molecule `COc1ccc(Cn2nc(N3C[C@H](c4ccccc4)C(c4ccc(Cl)cc4)=N3)n(C)c2=O)cc1` [Compound 143] gave a pIC50 greater than 7.00.

Take `Cn1c(N2C[C@H](c3ccccc3)C(c3ccc(Cl)cc3)=N2)nn(-c2ccc(CN3CCOCC3)cc2)c1=O` [Compound 144, 3-[(4S)(4-Chlorophenyl)-4-Phenyl-4,5-Dihydro-1H-Pyrazol-1-yl]-4-Methyl-1-[4-[(Morpholin-4-yl)Methyl] Phenyl]-4,5-Dihydro-1H-1,2,4-Triazol-5-One]: the pIC50 was 6.00 to 7.00.

For the molecule `NC(=O)Cn1c(N2C[C@H](c3ccccc3)C(c3ccc(Cl)cc3)=N2)nn(Cc2ccc(CN3CCOCC3)cc2)c1=O` [Compound 145, 2-[3-[(4S)-3-(4-chlorophenyl)-4-phenyl-4,5-dihydro-1H-pyrazol-1-yl]-1-([4-[(morpholin-4-yl)methyl]phenyl]methyl)-5-oxo-4,5-dihydro-1H-1,2,4-triazol-4-yl]acetamide], the pIC50 was 6.00 to 7.00.

`Cn1c(N2C[C@@H](c3ccccc3)C(c3ccc(Cl)cc3)=N2)nn(-c2ccc(CN3CCOCC3)cc2)c1=O` [Compound 146] showed a pIC50 of less than 5.30.

In the case of `NC(=O)Cn1c(N2C[C@@]3(CCc4ccccc43)C(c3ccc(Cl)cc3)=N2)nn(CC2CCCCC2)c1=O` [Compound 147, 2-[3-[(1S)-3-(4-chlorophenyl)-1,2,3,5-tetrahydrospiro[indene-1,4-pyrazol]-1-y1]-1-(cyclohexylmethyl)-5-oxo-4,5-dihydro-1H-1,2,4-triazol-4-yl]acetamide], the pIC50 is 5.30 to 6.00.

In turn, `CN1CCN(Cc2ccc(Cn3nc(N4C[C@H](c5ccccc5)C(c5ccc(Cl)cc5)=N4)n(CC(N)=O)c3=O)cc2)CC1` [Compound 149] showed a negative logarithm of the IC50 (pIC50) of less than 5.30.

Molecule `C[C@H](c1ccc(Cl)cc1)n1nc(N2C[C@@H](c3ccccc3)C(c3ccc(Cl)cc3)=N2)n(CC(N)=O)c1=O` [Compound 152] had a pIC50 of 5.30 to 6.00.

Take `C[C@@H](c1ccc(Cl)cc1)n1nc(N2C[C@H](c3ccccc3)C(c3ccc(Cl)cc3)=N2)n(CC(N)=O)c1=O` [Compound 153]: the pIC50 was greater than 7.00.

Consider `C[C@H](c1ccc(Cl)cc1)n1nc(N2C[C@H](c3ccccc3)C(c3ccc(Cl)cc3)=N2)n(CC(N)=O)c1=O` [Compound 154], for which the pIC50 is greater than 7.00.

Molecule `CC(C(N)=O)n1c(N2CC(c3ccccc3)C(c3ccc(Cl)cc3)=N2)nn(CC2CCCCC2)c1=O` (centres unmarked) [Compound 158, 2-[3-[3-(4-chlorophenyl)-4-phenyl-4,5-dihydropyrazol-1-yl]-1-(cyclohexylmethyl)-5-oxo-1,2,4-triazol-4-yl]propanamide] gave a pIC50 greater than 7.00.

On to `C[C@@H](C(N)=O)n1c(N2C[C@@H](c3ccccc3)C(c3ccc(Cl)cc3)=N2)nn(Cc2ccc(CN3CCOCC3)cc2)c1=O` [Compound 159], for which the pIC50 is 5.30 to 6.00.

On to `Cn1c(N2CC(c3ccccc3)C(c3ccc(Cl)cc3)=N2)nn(Cc2ccc(C#N)cc2)c1=O` (centres unmarked) [Compound 160], for which the pIC50 was greater than 7.00.

`Cc1ccc(Cn2nc(N3C[C@@H](c4ccccc4)C(c4ccc(Cl)cc4)=N3)n(C)c2=O)cc1` [Compound 161] showed a negative logarithm of the IC50 (pIC50) of 5.30 to 6.00.

In the case of `Cc1ccc(Cn2nc(N3C[C@H](c4ccccc4)C(c4ccc(Cl)cc4)=N3)n(C)c2=O)cc1` [Compound 163], the pIC50 was greater than 7.00.

Consider `C[C@H](C(N)=O)n1c(N2C[C@@H](c3ccccc3)C(c3ccc(Cl)cc3)=N2)nn(Cc2ccc(CN3CCOCC3)cc2)c1=O` [Compound 164], for which the pIC50 is less than 5.30.

As for `Cn1c(N2C[C@@H](c3ccccc3)C(c3ccc(Cl)cc3)=N2)nn(Cc2ccccc2)c1=O` [Compound 166], the pIC50 is 6.00 to 7.00.
